Six compounds from BindingDB's records for PubMed 8035312 (University of California, 1994) can be followed below.

Where “and” joins values, the source holds several entries; their conditions need not be identical. Equal entries are not always repeated.

As a reminder, the Ki is a measure of affinity in units of concentration, obtained from inhibition or displacement.

The experiment deals with Nicotinic acetylcholine receptor (Rattus leucopus, UniProt Q62594).
Chain of Nicotinic acetylcholine receptor (Q62594 whole entry): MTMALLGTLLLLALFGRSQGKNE
As for `CN1[C@@H](C[C@@H](O)c2ccccc2)CCC[C@H]1CC(=O)c1ccccc1` [Lobeline], the Ki amounted to 0.0155 µM. For the compound `C[N+](C)(C)CCCCCC[N+](C)(C)C` [Hexamethoniumdibromide], the Ki is over 10 µM. As to `COc1cc2c3cc1Oc1cc(ccc1O)C[C@@H]1c4c(cc(OC)c(O)c4Oc4ccc(cc4)C[C@@H]3N(C)CC2)CC[N+]1(C)C` [Tubocurarine,d], the Ki was 1 µM and 0.282 µM. The value for `O=C1N(Cc2ccccc2)C2C[S+]3CCCC3C2N1Cc1ccccc1` (stereo unspecified) [NSC_441310] was over 10 µM; that for `C=C(C=O)C[C@H]1C[C@H](O)[C@]2(C)O[C@@H]3C[C@@H]4O[C@@H]5C[C@]6(C)O[C@]7(C)CC[C@@H]8O[C@@H]9C[C@]%10(C)O[C@@H]%11C(C)=CC(=O)O[C@H]%11C[C@H]%10O[C@H]9C[C@@H](C)[C@H]8O[C@H]7C[C@H]6O[C@@]5(C)C/C=C\[C@H]4O[C@H]3C[C@H]2O1` was > 10 µM and 1 µM. `CNC(=O)OCC[N+](C)(C)C` [CAS_14721-69-8] displayed a Ki of 0.0052 µM.
